These results are taken from publication PMC9448386, “Discovery of novel conjugates of quinoline and thiazolidinone urea as potential anti-colorectal cancer agent” (Journal of Enzyme Inhibition and Medicinal Chemistry, 2022).

One data set deals with COLO 205 cells. The data set can be described thus: MTT assay, cytotoxic activity against COLO 205. The class given is cell-based. Conditions: MTT, average of three separate determinations, SD shown. From the text:
(§1) Taking lead compound BC2021-104511-15i, Fruquintinib and Regorafenib as positive controls, the cytotoxic activity against HT-29, HCT-116, COLO-205 and FHC cell lines by MTT assay. Detailed operation could be found in our previous study.

The next data set deals with HT-29 cells. The data set can be described thus: MTT assay, cytotoxic activity against HT-29. In kind it is cell-based, human. Conditions: SD shown.
Text: as §1
Background: Tetrazolium assays rely on reduction of a dye to a coloured formazan, in cell work by metabolically active cells.

For the next data set, the target named is MST1R (Homo sapiens, UniProt Q04912). The experiment in a line: Mobility shift assay, MST1R kinase inhibition. Conditions: mean of two independent experiments. In kind it is biochemical. On the procedure: (§2) Kinase inhibitory activity against HGFR, MST1R, ABL, PDGFRβ, AXL, FLT3, RET, c-Src, and VEGFR-2 was evaluated by the mobility shift assay. Detailed operation could be found in our previous research.
Sequence of MST1R (Q04912 25-1400): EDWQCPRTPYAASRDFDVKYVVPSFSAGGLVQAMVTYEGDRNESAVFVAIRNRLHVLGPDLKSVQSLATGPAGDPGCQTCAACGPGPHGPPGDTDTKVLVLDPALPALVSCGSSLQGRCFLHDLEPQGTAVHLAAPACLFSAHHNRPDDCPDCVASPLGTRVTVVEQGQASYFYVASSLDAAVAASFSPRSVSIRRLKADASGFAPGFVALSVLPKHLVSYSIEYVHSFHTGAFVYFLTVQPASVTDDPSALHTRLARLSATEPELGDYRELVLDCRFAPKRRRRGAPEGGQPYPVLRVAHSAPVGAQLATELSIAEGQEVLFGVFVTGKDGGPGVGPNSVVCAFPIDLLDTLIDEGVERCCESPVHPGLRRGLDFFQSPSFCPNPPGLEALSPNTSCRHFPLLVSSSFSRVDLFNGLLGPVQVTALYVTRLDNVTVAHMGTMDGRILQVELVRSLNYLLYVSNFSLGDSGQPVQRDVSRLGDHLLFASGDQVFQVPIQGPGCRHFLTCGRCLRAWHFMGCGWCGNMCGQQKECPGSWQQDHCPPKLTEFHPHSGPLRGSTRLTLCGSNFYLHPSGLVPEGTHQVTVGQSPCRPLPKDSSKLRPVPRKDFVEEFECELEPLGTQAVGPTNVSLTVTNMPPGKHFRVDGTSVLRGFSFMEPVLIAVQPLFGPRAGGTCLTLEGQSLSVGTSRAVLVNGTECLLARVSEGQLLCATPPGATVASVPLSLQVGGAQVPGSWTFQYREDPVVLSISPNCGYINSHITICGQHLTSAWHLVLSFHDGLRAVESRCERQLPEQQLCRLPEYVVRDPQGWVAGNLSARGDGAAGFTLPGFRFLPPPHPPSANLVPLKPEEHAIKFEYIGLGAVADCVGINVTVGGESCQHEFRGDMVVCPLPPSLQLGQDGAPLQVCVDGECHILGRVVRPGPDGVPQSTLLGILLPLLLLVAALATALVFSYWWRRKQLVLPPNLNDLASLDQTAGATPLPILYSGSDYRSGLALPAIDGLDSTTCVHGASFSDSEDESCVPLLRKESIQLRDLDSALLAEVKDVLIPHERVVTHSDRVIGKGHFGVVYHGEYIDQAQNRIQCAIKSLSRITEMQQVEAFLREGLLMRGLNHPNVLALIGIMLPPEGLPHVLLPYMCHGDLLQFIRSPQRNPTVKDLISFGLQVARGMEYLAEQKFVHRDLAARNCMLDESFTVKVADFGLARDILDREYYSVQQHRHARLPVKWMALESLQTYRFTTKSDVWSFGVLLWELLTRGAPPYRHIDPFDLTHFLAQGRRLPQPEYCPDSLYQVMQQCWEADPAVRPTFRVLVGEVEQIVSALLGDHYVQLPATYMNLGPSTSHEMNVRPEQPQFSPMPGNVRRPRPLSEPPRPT

For the next data set, the target named is HGFR (Homo sapiens, UniProt P08581). The data set can be described thus: Mobility shift assay, HGFR kinase inhibition. The settings on record: mean of two independent experiments. The class given is biochemical. The protocol:
as §2

The subject of the next data set is HCT-116 cells. The data set can be described thus: MTT assay, cytotoxic activity against HCT-116. The class given is cell-based. The settings on record: Homo sapiens, average of three separate determinations, SD shown.
Text: as §1

A further data set concerns Ron (MST1R). Conditions: Figure 1; cited from earlier work.
Data set [1] in a line: MTT assay, cytotoxicity against FHC cells. The class given is cell-based. Conditions: FHC cells (normal colorectal mucosa epithelial cells); human normal colorectal mucosa epithelial cells; average of three separate determinations. On the procedure: In order to investigate the cell selectivity index, the cytotoxicity of potent compounds against human normal colorectal mucosa epithelial cell FHC cells was determined.
as §1

[2] abbreviates: Homo sapiens, HT-29, average of three separate determinations.

A value given as a limit tells only on which side of the number the result lay.

Sequence of HGFR (P08581 25-1390): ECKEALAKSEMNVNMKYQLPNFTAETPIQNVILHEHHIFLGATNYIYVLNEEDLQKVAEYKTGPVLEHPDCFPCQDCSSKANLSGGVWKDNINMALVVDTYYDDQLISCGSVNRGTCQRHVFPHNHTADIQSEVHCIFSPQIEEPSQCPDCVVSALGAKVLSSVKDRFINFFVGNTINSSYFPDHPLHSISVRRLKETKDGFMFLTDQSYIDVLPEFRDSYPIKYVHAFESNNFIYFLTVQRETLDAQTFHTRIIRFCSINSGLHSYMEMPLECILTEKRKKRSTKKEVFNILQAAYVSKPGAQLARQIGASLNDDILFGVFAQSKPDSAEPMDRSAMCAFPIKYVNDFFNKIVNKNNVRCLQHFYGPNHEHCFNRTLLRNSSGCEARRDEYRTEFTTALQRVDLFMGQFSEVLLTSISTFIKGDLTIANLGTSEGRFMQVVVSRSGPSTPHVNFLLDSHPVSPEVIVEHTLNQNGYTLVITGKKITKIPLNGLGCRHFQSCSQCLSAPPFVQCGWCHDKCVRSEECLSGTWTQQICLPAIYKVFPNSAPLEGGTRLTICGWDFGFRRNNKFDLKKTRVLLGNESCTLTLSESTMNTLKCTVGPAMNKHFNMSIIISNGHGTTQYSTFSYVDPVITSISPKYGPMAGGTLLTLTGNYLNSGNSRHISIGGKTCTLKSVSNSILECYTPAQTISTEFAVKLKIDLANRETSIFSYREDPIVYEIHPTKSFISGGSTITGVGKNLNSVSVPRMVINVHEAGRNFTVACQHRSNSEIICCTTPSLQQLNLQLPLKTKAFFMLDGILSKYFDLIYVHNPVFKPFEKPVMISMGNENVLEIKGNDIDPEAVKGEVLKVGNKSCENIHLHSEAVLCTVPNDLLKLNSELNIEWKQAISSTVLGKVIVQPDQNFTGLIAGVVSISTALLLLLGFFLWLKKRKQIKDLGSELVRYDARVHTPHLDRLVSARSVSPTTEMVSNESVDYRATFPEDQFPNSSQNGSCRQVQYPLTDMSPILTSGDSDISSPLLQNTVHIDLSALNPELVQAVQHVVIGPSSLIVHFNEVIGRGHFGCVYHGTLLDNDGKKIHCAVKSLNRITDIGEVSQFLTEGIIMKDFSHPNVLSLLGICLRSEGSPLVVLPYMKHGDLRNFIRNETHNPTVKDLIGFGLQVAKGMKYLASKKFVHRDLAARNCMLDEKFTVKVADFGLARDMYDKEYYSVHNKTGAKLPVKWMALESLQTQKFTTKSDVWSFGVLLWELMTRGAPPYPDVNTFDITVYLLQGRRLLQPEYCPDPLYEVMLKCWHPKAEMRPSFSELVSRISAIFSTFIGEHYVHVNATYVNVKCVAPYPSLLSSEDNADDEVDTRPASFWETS

As for “2–(4-((4–(4-(3–(2-(2,6-Difluorophenyl)-4-oxotetrahydrothiophen-3-yl)ureido)-2-fluorophenoxy)-6-methoxyquinazolin-7-yl)oxy)piperidin-1-yl)acetamide [Compound 19]”, the results for the IC50 with COLO 205 cells and in the data set on HT-29 cells (average of three separate determinations) were 5.3 ± 0.47 µM and 8.6 ± 0.67 µM, respectively.
With `CCN(CC)C(=O)N1CCC(Oc2cc3nccc(Oc4ccc(NC(=O)NN5C(=O)CSC5c5c(F)cccc5F)cc4F)c3cc2OC)CC1` (centres unmarked) [BC2021-104511-15i, 4-((4-(4-(3-(2-(2,6-difluorophenyl)-4-oxothiazolidin-3-yl)ureido)-2-fluorophenoxy)-6-methoxyquinolin-7-yl)oxy)-N,N-diethylpiperidine-1-carboxamide, reference compound], the IC50 – broadly, the point on the concentration scale where inhibition reaches its midpoint – with COLO 205 cells (Homo sapiens, COLO 205) was 0.72 ± 0.065 µM; at MST1R, 0.11 µM; at HGFR, 0.27 µM; in the data set on HT-29 cells (setting [2]), 0.79 ± 0.058 µM; in the data set with HCT-116 cells it was 4.8 ± 0.44 µM.
In the case of `CCOc1ccn(-c2ccc(F)cc2)c(=O)c1C(=O)Nc1ccc(Oc2ccnc(N)c2Cl)c(F)c1` [BMS-777607], the IC50 in the data set on Ron (MST1R) is 0.0018 µM.
With `CNC(=O)CN1CCC(Oc2cc3nccc(Oc4ccc(NC(=O)NN5C(=O)CSC5c5c(F)cccc5F)cc4F)c3cc2OC)CC1` (centres unmarked) [Compound 10c, 2–(4-((4–(4-(3–(2-(2,6-Difluorophenyl)-4-oxothiazolidin-3-yl)ureido)-2-fluorophenoxy)-6-methoxyquinolin-7-yl)oxy)piperidin-1-yl)-N-methylacetamide], the IC50 in the data set on COLO 205 cells (Homo sapiens, COLO 205) came to 0.44 ± 0.038 µM; at MST1R it was 0.072 µM; at HGFR, 0.14 µM; in the data set on HT-29 cells (setting [2]), 4.1 ± 0.27 µM; in the data set on HCT-116 cells it was 5.9 ± 0.53 µM.
With `COc1cc2c(Oc3ccc(NC(=O)NN4C(=O)CSC4c4c(F)cccc4F)cc3F)ccnc2cc1OC1CCN(C(=O)CN(C)C)CC1` (centres unmarked) [Compound 10d, 1–(2-(2,6-Difluorophenyl)-4-oxothiazolidin-3-yl)-3–(4-((7-((1-(dimethylglycyl)piperidin-4-yl)oxy)-6-methoxyquinolin-4-yl)oxy)-3-fluorophenyl)urea], the IC50 was more than 10 µM in data set [1]; 4.9 ± 0.38 µM in the data set with COLO 205 cells (Homo sapiens, COLO 205); 0.44 µM at MST1R; 0.9 µM at HGFR; 2.9 ± 0.19 µM in the data set with HT-29 cells (setting [2]); 2.4 ± 0.26 µM in the data set with HCT-116 cells.
As for `COc1cc2c(Oc3ccc(NC(=O)NN4C(=O)CSC4c4c(F)cccc4F)cc3F)ccnc2cc1OC1CCN(CC(=O)N2CCOCC2)CC1` (centres unmarked) [Compound 10f, 1–(2-(2,6-Difluorophenyl)-4-oxothiazolidin-3-yl)-3–(3-fluoro-4-((6-methoxy-7-((1–(2-morpholino-2-oxoethyl)piperidin-4-yl)oxy)quinolin-4-yl)oxy)phenyl)urea], the IC50 in data set [1] was more than 10 µM; with COLO 205 cells (Homo sapiens, COLO 205) it was 0.42 ± 0.034 µM; on MST1R it was 0.078 µM; at HGFR it was 0.14 µM; in the data set with HT-29 cells (setting [2]), 1.9 ± 0.11 µM; with HCT-116 cells it was 2.6 ± 0.27 µM.
Consider `COc1cc2c(Oc3ccc(NC(=O)NN4C(=O)CSC4c4c(F)cccc4F)cc3F)ccnc2cc1OC1CCN(C(=O)COC(C)=O)CC1` (centres unmarked) [Compound 10g, 2–(4-((4–(4-(3–(2-(2,6-Difluorophenyl)-4-oxothiazolidin-3-yl)ureido)-2-fluorophenoxy)-6-methoxyquinolin-7-yl)oxy)piperidin-1-yl)-2-oxoethyl acetate], for which the IC50 in the data set on COLO 205 cells (Homo sapiens, COLO 205) stood at 0.59 ± 0.045 µM; at MST1R, 0.11 µM; at HGFR, 0.18 µM; in the data set with HT-29 cells (setting [2]), 6.9 ± 0.47 µM; in the data set on HCT-116 cells it was 4.8 ± 0.44 µM.
Take `COc1cc2c(Oc3ccc(NC(=O)NN4C(=O)CSC4c4c(F)cccc4F)cc3F)ccnc2cc1OC1CCN(C(=O)CO)CC1` (centres unmarked) [Compound 10h, 1–(2-(2,6-Difluorophenyl)-4-oxothiazolidin-3-yl)-3–(3-fluoro-4-((7-((1–(2-hydroxyacetyl)piperidin-4-yl)oxy)-6-methoxyquinolin-4-yl)oxy)phenyl)urea]: the IC50 in data set [1] was more than 10 µM; in the data set on COLO 205 cells (Homo sapiens, COLO 205), 0.85 ± 0.073 µM; on MST1R it was 0.16 µM; at HGFR, 0.22 µM; in the data set with HT-29 cells (setting [2]), 6.5 ± 0.43 µM.
For `COc1cc2c(Nc3ccc(NC(=O)NN4C(=O)CSC4c4c(F)cccc4F)cc3F)ccnc2cc1OC1CCN(CC(N)=O)CC1` (centres unmarked) [Compound 10i, 2–(4-((4-((4–(3-(2–(2,6-Difluorophenyl)-4-oxothiazolidin-3-yl)ureido)-2-fluorophenyl)amino)-6-methoxyquinolin-7-yl)oxy)piperidin-1-yl)acetamide], the IC50 in the data set with HT-29 cells (setting [2]) and in the data set on HCT-116 cells was more than 10 µM each time.
As for `CNC(=O)c1c(C)oc2cc(Oc3ncnc4cc(OC)c(OC)cc34)ccc12` [Fruquintinib, reference compound], the IC50 is more than 10 µM with COLO 205 cells (Homo sapiens, COLO 205); 1.57 µM in the data set on HT-29 cells (setting [2]); 2.2 ± 0.17 µM with HCT-116 cells.
In the case of `Cn1cc(-c2cnc3ccc4ccc(CS(=O)(=O)NCc5ccccn5)cc4c(=O)c3c2)cn1` [MK-8033, 1-[3-(1-Methyl-1H-pyrazol-4-yl)-5-oxo-5H-benzo[4,5]cyclohepta[1,2-b]pyridin-7-yl]-N-(pyridin-2-ylmethyl)methanesulfonamide], the IC50 in the data set on Ron (MST1R) is 0.007 µM.
As to `CNC(=O)c1cc(Oc2ccc(NC(=O)Nc3ccc(Cl)c(C(F)(F)F)c3)c(F)c2)ccn1` [Regorafenib, reference compound], the IC50 is more than 10 µM in the data set with COLO 205 cells (Homo sapiens, COLO 205); 8.49 µM in the data set with HT-29 cells (setting [2]); 8.2 ± 0.75 µM with HCT-116 cells.
